Measurements as given in the supplement of paper PMC3068080.

Experiments:
TGFBR1 mRNA [1] = assay: remaining TGFBR1 mRNA relative to control siRNA (off-target knock-down) (fraction of control); quantification method: branched DNA (R1), qPCR (R2); higher = less knock-down
Method: (§1)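 Screen-hit siRNA duplexes (19-mer plus 3' dTdT overhang) were transiently transfected into HaCaT cells in 12-well plates. After 48 h, TGFBR1 and TGFBR2 mRNA were quantified by branched DNA assay (QuantiGene, normalised to HPRT1) or by SYBR qPCR (normalised to HPRT1/SMAD4). Values are the remaining mRNA relative to control-siRNA-transfected cells; 1-2 biological replicates.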

TGFBR2 mRNA [2] = assay: remaining TGFBR2 mRNA relative to control siRNA (off-target knock-down) (fraction of control); quantification method: branched DNA (R1), qPCR (R2); higher = less knock-down
Method: as §1

TGFBR1 mRNA [3] = assay: remaining TGFBR1 mRNA relative to control siRNA (off-target knock-down) (fraction of control); quantification method: qPCR (R1), branched DNA (R2); higher = less knock-down
Method: as §1

TGFBR2 mRNA [4] = assay: remaining TGFBR2 mRNA relative to control siRNA (off-target knock-down) (fraction of control); quantification method: qPCR (R1), branched DNA (R2); higher = less knock-down
Method: as §1

TGFBR1 mRNA [5] = assay: remaining TGFBR1 mRNA relative to control siRNA (off-target knock-down) (fraction of control); quantification method: qPCR; higher = less knock-down
Method: as §1

TGFBR2 mRNA [6] = assay: remaining TGFBR2 mRNA relative to control siRNA (off-target knock-down) (fraction of control); quantification method: qPCR; higher = less knock-down
Method: as §1

TGFBR2 mRNA [7] = assay: remaining TGFBR2 mRNA relative to control siRNA (off-target knock-down) (fraction of control); quantification method: branched DNA; higher = less knock-down
Method: as §1

TGFBR1 mRNA [8] = assay: remaining TGFBR1 mRNA relative to control siRNA (off-target knock-down) (fraction of control); quantification method: branched DNA; higher = less knock-down
Method: as §1

Sequence	remaining TGFBR2 mRNA (TGFBR2 mRNA [7])	remaining TGFBR1 mRNA (TGFBR1 mRNA [8])	further results
AACACCAUCUACUUGAUGGTT			remaining TGFBR1 mRNA (TGFBR1 mRNA [1]): 1.31; remaining TGFBR2 mRNA (TGFBR2 mRNA [2]): 0.78
AACUGGUUCAGGUACUUCCTT			remaining TGFBR1 mRNA (TGFBR1 mRNA [1]): 0.95; remaining TGFBR2 mRNA (TGFBR2 mRNA [2]): 0.71
ACUACGACUCAGUGCCUGGTT			remaining TGFBR1 mRNA (TGFBR1 mRNA [1]): 1; remaining TGFBR2 mRNA (TGFBR2 mRNA [2]): 0.7
AGACGGCAAACGACUGUCCTT			remaining TGFBR1 mRNA (TGFBR1 mRNA [1]): 1.27; remaining TGFBR2 mRNA (TGFBR2 mRNA [2]): 0.75
AGCUCAAACAGUAUCUGGUTT			remaining TGFBR1 mRNA (TGFBR1 mRNA [1]): 1.45; remaining TGFBR2 mRNA (TGFBR2 mRNA [2]): 0.7
AGGAUCAGCAGCCCGUAGCTT			remaining TGFBR1 mRNA (TGFBR1 mRNA [1]): 1.52; remaining TGFBR2 mRNA (TGFBR2 mRNA [2]): 0.72
AUAGACCAUCCCCCUUCUUTT			remaining TGFBR1 mRNA (TGFBR1 mRNA [3]): 0.46; remaining TGFBR2 mRNA (TGFBR2 mRNA [4]): 0.95
AUCCUGCAGAAUCACGUCCTT			remaining TGFBR1 mRNA (TGFBR1 mRNA [1]): 0.93; remaining TGFBR2 mRNA (TGFBR2 mRNA [2]): 0.7
AUGAUGUCAUCGGCUGUGGTT			remaining TGFBR1 mRNA (TGFBR1 mRNA [5]): 0.68; remaining TGFBR2 mRNA (TGFBR2 mRNA [6]): 0.15
AUGUGUACAGCCCUCUUCCTT			remaining TGFBR1 mRNA (TGFBR1 mRNA [1]): 1.84; remaining TGFBR2 mRNA (TGFBR2 mRNA [2]): 0.65
CUCUGGGGAUUUGGAGGAUTT			remaining TGFBR1 mRNA (TGFBR1 mRNA [1]): 1.07; remaining TGFBR2 mRNA (TGFBR2 mRNA [2]): 0.71
UCUCGCUGACGAAGCAGUATT			remaining TGFBR1 mRNA (TGFBR1 mRNA [1]): 1.1; remaining TGFBR2 mRNA (TGFBR2 mRNA [2]): 0.75
UCUGUCAUAGGAUCCAAAATT			remaining TGFBR1 mRNA (TGFBR1 mRNA [5]): 0.74; remaining TGFBR2 mRNA (TGFBR2 mRNA [6]): 0.75
UGCACCUGACUUUUCUCUGTT			remaining TGFBR1 mRNA (TGFBR1 mRNA [1]): 1.37; remaining TGFBR2 mRNA (TGFBR2 mRNA [2]): 0.72
UGGGCUUUUCUCUUCUCUCTT	1.43	1.47	
UGGUGAAGAGGCACUUAACTT	1.06	0.69	
UGUACUUCUCCUUGGAGAATT	0.64	0.8	
UGUAGUGAAUUCCAAAGAGTT	0.41	0.47	
UGUCCUGGUCACACUUCCATT	0.5	0.23	
UGUCUCCUCUCUUGUCCGUTT			remaining TGFBR1 mRNA (TGFBR1 mRNA [1]): 0.95; remaining TGFBR2 mRNA (TGFBR2 mRNA [2]): 0.7
UGUGCUUGGUCACGGACACTT	0.27	1.86	
UGUGUAGCACAUGGGACACTT	0.73	1.05	
UGUUCUUGAAGUCCCGCAGTT	0.78	1.69	
UUAUAAGCCAAAGUGCGUCTT	1.66	0.6	
UUAUCCCAUAUGAGCUCAGTT	0.5	1.33	
UUAUCCUGAUCACGUCUAGTT	0.14	0.65	

Sequence	remaining TGFBR2 mRNA (TGFBR2 mRNA [7])	remaining TGFBR1 mRNA (TGFBR1 mRNA [8])	further results
UUAUUGGGCAAAAUCCGGGTT	0.72	0.88	
UUAUUUGGGUGGGCUGGGGTT			remaining TGFBR1 mRNA (TGFBR1 mRNA [1]): 0.98; remaining TGFBR2 mRNA (TGFBR2 mRNA [2]): 0.75
UUCAAGGUCAGUCUCUGGGTT	0.51	1.07	
UUCAAUAGUUGUCAGAGGCTT	1.62	1.35	
UUCCCUGCUACUGUUGCUUTT	0.72	0.84	
UUCCUUGGCUGUGAUGCUCTT	0.11	0.93	
UUCCUUGGUACGGCCGCUCTT	0.13	0.87	
UUCGUCGAUGGCUUCGUCUTT	0.65	0.67	
UUCUUCUGGUCCAUACUCATT	0.66	0.45	
UUCUUUGGAGAGUCCGGUCTT	0.3	0.88	
UUGAGCGAUUCCAGCUGCATT	0.85	1.77	
UUGCAAGCCCAGAUCAGACTT	0.74	0.92	
UUGGAGCCCUUUCCUUUCUTT	0.26	1.07	
UUGUAAAAACCAGGCGACCTT	0.33	1.48	
UUGUCAAAGUGGAACGCUCTT	0.29	0.83	
UUGUGCUGCAUACGGAGCCTT	0.45	1.69	
UUUCAGCAAUACAAGCCCGTT	0.68	0.39	
UUUCAUUCCAUUGGAAUUUTT	0.59	1.25	
UUUCCUGGCCUCCUGGAACTT	0.29	0.94	
UUUCCUGGUUGGUGAGCAGTT	0.36	1.29	
UUUGGACUGGUUGGCACAGTT	0.69	1.11	
UUUGGAGCUCCCCAAACGCTT	0.26	0.39	
UUUGGCUUCUUCUAGUGACTT	0.51	0.91	
UUUGUUGUCCAGUGGUCCGTT	0.43	1.13	
UUUUCCUGGCCUCUGAUCCTT	0.15	0.99	
